{
  "source": "the SangsterLogP compilation",
  "data": [
    {"settings": "pH 2.0", "values": [
      {"smiles": "CN(C)S(=O)(=O)c1cccc(Cn2c(=O)c(=O)n(Cc3ccccc3)c3ccc(Cl)cc32)c1", "logD": 3.37},
      {"smiles": "COc1ccc([C@@H](C(=O)Nc2ccc3c(c2)OCCO3)N(C)C(=O)Cc2c[nH]c3ccccc23)cc1", "logD": 3.76},
      {"smiles": "CC[C@@H](NS(=O)(=O)c1ccc(C)cc1)C(=O)Oc1ccc2c3c(c(=O)oc2c1)CCCC3", "logD": 3.08},
      {"smiles": "O=C(COC(=O)/C=C/c1ccc(F)cc1)Nc1cc(C(F)(F)F)ccc1N1CCOCC1", "logD": 5.08},
      {"smiles": "COc1ccc(NC(=O)[C@H](OC(=O)CNC(=O)c2ccc(C)s2)c2ccccc2)cc1Cl", "logD": 4.54},
      {"smiles": "CCN(CC)S(=O)(=O)c1ccc(C(=O)N2CCNC(=O)[C@H]2CC(=O)OC)cc1", "logD": 1.14}
    ]},
    {"settings": "pH 5.0", "values": [
      {"smiles": "CC1=NN(C(=O)c2ccccc2Cl)[C@](O)(c2ccc(Cl)cc2)C1", "logD": 3.73},
      {"smiles": "COc1ccccc1[C@@H]1CC(=O)Nc2cc(C)c(C)cc21", "logD": 4.17},
      {"smiles": "Cc1ccc(CNC(=O)C2CCN(S(=O)(=O)c3ccc4c(c3)OCCCO4)CC2)cc1", "logD": 4.01},
      {"smiles": "C=CCN1C(=S)N(c2ccc(CC)cc2)[C@H]2CS(=O)(=O)C[C@@H]21", "logD": 2.86},
      {"smiles": "O=C(/C=C/Nc1cccc(C(F)(F)F)c1)c1ccc(Br)cc1", "logD": 5.65},
      {"smiles": "COc1cc(C#N)ccc1OC(=O)/C=C/c1cccc(F)c1", "logD": 4.46},
      {"smiles": "N#CC1=C(N)C(C#N)(C#N)[C@@H](c2ccccc2Cl)[C@@H]2CSCC=C12", "logD": 4.5},
      {"smiles": "CCOC(=O)CN1C(=O)[C@@H](OC(=O)c2ccccc2)[C@@H](OC(=O)c2ccccc2)C1=O", "logD": 5},
      {"smiles": "C#CCN1C(=O)[C@H]2CC[C@@](C)(C1=O)C2(C)C", "logD": 2.28},
      {"smiles": "CC(=O)c1cccc(N2C(=O)[C@@H]3[C@H](C2=O)[C@@H]2C=C[C@H]3C2=C(c2ccc(C)cc2)c2ccc(C)cc2)c1", "logD": 6.25},
      {"smiles": "CC1(C)[C@H](C(=O)N2CCOCC2)CC[C@]1(C)C(=O)N1CCOCC1", "logD": 2.46},
      {"smiles": "C#CCOc1ccc(C2C3=C(CC(C)(C)CC3=O)OC3=C2C(=O)CC(C)(C)C3)cc1OCC", "logD": 4.93},
      {"smiles": "Cc1ccc(N2C(=O)c3ccccc3N[C@H]2c2cccc([N+](=O)[O-])c2)cc1", "logD": 4.18},
      {"smiles": "Cc1ccc(N2C(=O)N(c3cccc(Cl)c3)[C@@H]3CS(=O)(=O)C[C@@H]32)cc1", "logD": 3.56},
      {"smiles": "CN(C)C(=O)[C@H]1OC(C)(C)O[C@@H]1C(=O)N(C)C", "logD": 1.49},
      {"smiles": "COC(=O)[C@H](CCSC)NC(=O)c1cc2c(n(-c3ccccc3)c1=O)CC(C)(C)CC2=O", "logD": 3.97},
      {"smiles": "CCCC1=C(C(=O)OCC)[C@H](c2ccc3c(c2)OCO3)NC(=O)N1", "logD": 3.59},
      {"smiles": "O=C(NCc1ccc(F)cc1)c1nn2c(c1Br)N[C@H](c1cccs1)C[C@H]2C(F)(F)F", "logD": 5.54},
      {"smiles": "O=C(N[C@H](Sc1ncccn1)C(=O)c1ccccc1)c1ccccc1", "logD": 3.62},
      {"smiles": "CC(=O)Nc1ccc(/N=C/c2c(O)oc3ccccc3c2=O)cc1", "logD": 3.64},
      {"smiles": "CCOCCOC(=O)c1ccc(NC(=O)COc2ccc(C)cc2Br)cc1", "logD": 5.36},
      {"smiles": "CCNC(=O)/C(=C/c1cn(-c2ccccc2)nc1-c1cccs1)NC(=O)c1ccccc1", "logD": 4.64},
      {"smiles": "CC(C)[C@H]1O[C@H]2CCCC[C@H]2C2=CCCC[C@H]21", "logD": 5.87},
      {"smiles": "CCCC(=O)NC[C@@H](C)NC(=O)CCC", "logD": 1.43},
      {"smiles": "O=C(NC[C@@H]1CCCO1)c1sc2ccccc2c1Cl", "logD": 3.56},
      {"smiles": "O=C(Nc1ccc(C(F)(F)F)cc1)[C@H]1CCc2ccccc2O1", "logD": 4.5},
      {"smiles": "C[C@@H]1CCCC[C@H]1NC(=O)COC(=O)C1=COCCO1", "logD": 2.48},
      {"smiles": "CCOC(=O)c1[nH]c(C)c(C(=O)OCC(=O)N(C)[C@@H]2CCS(=O)(=O)C2)c1C", "logD": 3.35},
      {"smiles": "O=C(c1nn2c(c1Br)N[C@H](c1cccs1)C[C@H]2C(F)(F)F)N1CCCC1", "logD": 4.47},
      {"smiles": "COC(=O)c1c(NC(=O)Cn2nc(C)c([N+](=O)[O-])c2C)sc2c1CC[C@H](C(C)(C)C)C2", "logD": 6.53},
      {"smiles": "O=C(CN1C(=O)c2ccccc2S1(=O)=O)Nc1ccc(S(=O)(=O)N2CCCCCC2)cc1", "logD": 4.73},
      {"smiles": "CCOC(=O)N1CCN(C(=O)c2ccc(N3C(=O)[C@H]4CCCC[C@@H]4C3=O)cc2)CC1", "logD": 3.74},
      {"smiles": "CC1(C)C[C@](C)(O)[P@](C)(=O)O1", "logD": 0.71},
      {"smiles": "CC1CCN(S(=O)(=O)N2CCC(C(=O)N[C@@H](C)c3ccccc3)CC2)CC1", "logD": 4.92},
      {"smiles": "CCOc1ccc(C[C@H]2c3cc(OCC)c(OCC)cc3CCN2C(=O)c2scnc2C)cc1OCC", "logD": 4.98},
      {"smiles": "CC1(C)OC[C@H](COc2c(F)c(N3CCOCC3)nc(F)c2Cl)O1", "logD": 4.07},
      {"smiles": "Cc1noc(C)c1C(=O)O[C@@H](C)C(=O)Nc1ccc2c(c1)OCCO2", "logD": 2.78},
      {"smiles": "O=C(Cc1coc2cc3c(cc12)CCC3)O[C@H]1CCCCC1=O", "logD": 4.43},
      {"smiles": "CCOC(=O)c1ccc(C#N)cc1", "logD": 1.87},
      {"smiles": "C[C@@H](Oc1ccccc1)C(=O)Nc1ccc(OC(F)(F)F)cc1", "logD": 4.77},
      {"smiles": "O=C(/C=C/c1ccccc1)Nc1cccc(NC(=O)c2cccc(Cl)c2)c1", "logD": 5.53},
      {"smiles": "Cc1c(Cl)c(C(F)(F)F)nn1[C@@H](C)C(=O)N1CCOCC1", "logD": 3.08},
      {"smiles": "C[C@]12CC[C@@H]3C[C@@]1(C(=O)NCC(F)(F)F)OC[C@@]32C", "logD": 3.11}
    ]}
  ]
}
